The values below come from patent US6384061B1, “Hydantoin compounds and methods related thereto” (LG Chemical Ltd., priority 2000, dated 2002).

One experiment addresses T1, Ras farnesyl transferase (Homo sapiens, UniProt P49354+P49356).
T1 construct: made in house
Description: Ras farnesyl transferase inhibiting activity (filter-binding, tritium-farnesylpyrophosphate, Ras-CVLS substrate). In kind it is biochemical. Particulars: recombinant Ras farnesyl transferase, 30 minutes at 37° C., read-out: Ftase IC50. How it is done:
The enzyme reaction was performed in 50 μl of 50 mM Sodium HEPES buffer solution containing 25 mmol of potassium chloride. 25 mmol of magnesium chloride, 10 mmol of DTT and 50 μmol of zinc chloride. 1.5 μmol of Ras substrate protein, 0.15 μmol of tritium-farnesylpyrophosphate and 4.5 nmol of farnesyl transferase were used.
More specifically, in the initial step, farnesyl transferase was added to the above buffer solution, reaction was maintained for 30 minutes at 37° C. and then the reaction was stopped by adding 1 ml of ethanol solution containing 1M HCl. The formed precipitates were adsorbed to GF/B filter using Hopper harvestor(Hopper #225V) for filter-binding, washed with ethanol, and then radioactivity of the dried filter was measured using LKB β counter. Enzyme titer was measured in the unsaturated state of substrate where the concentrations of Ras substrate protein and farnesyl transferase have quantitative relationship. Enzyme inhibiting activity was measured using less than 5% of total reaction solution of the compound according to the present invention dissolved in dimethylsulfoxide(DMSO) solution as a reagent. Enzyme inhibiting activity was represented by percentage of the amount of the farnesyl incorporated with the reagent to that without the reagent.

For experiment [1], the system named is intracellular Ras farnesyl transferase, Rat2 cell line. The experiment is described as follows: Intracellular Ras farnesyl transferase inhibiting activity in transformed Rat2 cells (35S-methionine labelling, Y13-259 immunoprecipitation, SDS-PAGE). In kind it is cell-based. As to conditions: Rattus norvegicus; transformed Rat2 fibroblast cell line; concentration inhibiting 50% of farnesyl binding of Ras protein; read-out: Ftase CIC50. Here is the method:
In the present experiment, Rat2 cell line which expresses C-Harvey-Ras protein having transforming activity and Rat2 cell line(Korean patent application No. 97-14409) which is transformed with fused protein of H-Ras substituted with polybasic lysine domain at C-terminus of K-Ras were used. The experiment was performed by the modified Declue's method(Declue. J. E. et al., Cancer Research, 1991. 51, 712). Hereinafter, the experimental method will be described in more detail.
3×10^5 cells of transformed Rat2 fibroblast cell line were sprayed on 60 mm cell cultivation dish and cultivated for 48 hours in a cell incubator at 37° C. and after 50% or more of density was reached, it was treated with a reagent. The compound according to the present invention dissolved in dimethylsulfoxide(DMSO) was used as the reagent. 1% of dimethylsulfoxide was used in both control and experimental groups. After 4 hours from the treatment of the reagent, methionine labeled with 150 μCi of radioactive isotope, ^35S per 1 ml of medium, was added and after cultivating for 20 hours, the cells were washed with physiological saline water. The cells were lysed using 1 ml of cool cell lysis buffer solution(50 mM of Sodium Herpiss buffer solution containing 5 mmol of magnesium chloride. 1 mmol of DTT, 1% NP 40, 1 mmol of EDTA, 1 mmol of PMSF, 2 μmol of leupeptin, 2 μmol of pepstatin A and 2 μmol of antipain) and the supernatant was obtained by high-velocity centrifugation of 12,000 g×5 minutes. The amount of the labeled radioisotope of the supernatent was measured and standardized to obtain a quantitative result in immunoprecipitation reaction and then. Y13-259, monoclonal antiboby specifically binding to Ras protein(Furth, M. E. et al., J. Virol, 1982, 43, 294) was added and reacted for 15 hours at 4° C. Protein A bound to goat anti-murine Immunoglobulin antibody-agarose suspension was added to the solution and reacted for 1 hour at 4° C. and then, to remove unspecific binding product, immunoprecipitates were washed with buffer solution(50 mM Tris chloride buffer solution containing 50 mmol of sodium chloride, 0.5% of sodium dioxycolate, 0.5% of NP 40 and 0.1% of SDS). The precipitates were boiled in reagent buffer solution for electrophoresis and then, electrophoresis was performed using 13.5% of SDS polyacrylamide gel. After electrophoresis, the gel was fixed and dried. Then, the gel was exposed to X-ray film, developed and printed. From the result of the experiment, intensities of band of protein with and without farnesyl of Ras protein were measured, and the concentration of reagent inhibiting 50% of farnesyl binding was defined as CIC50, an intracellular Ras farnesyl transferase inhibiting activity.

Experiment [2] concerns the target T2, Geranylgeranyl transferase (Bos taurus, UniProt P29702+Q5EAD5).
T2 construct: Geranylgeranyl transferase was purified from bovine brain; from tissue; host or cells: bovine brain
Description: Geranylgeranyl transferase inhibiting activity (geranylgeranyl pyrophosphate, Ras-CVIL substrate). It is filed as biochemical. Particulars: geranylgeranyl transferase purified from bovine brain, read-out: GGtase IC50. How it is done:
To evaluate the selective enzyme inhibiting activity of the compound according to the present invention, inhibiting activity on geranylgeranyl transferase was measured. Geranylgeranyl transferase was purified from bovine brain with the method modified from Schber's method(Schber et al., J. Biol. Chem. 1990, 265, 14701). and substantially the same experiment as that of farnesyl transferase was performed using geranylgeranyl pyrophosphate and Ras-CVIL substrate protein under the similar condition to farnesyl transferase reaction.

The structures appear in SMILES notation. Some results are limits rather than exact numbers.

`CC1(c2cccc3ccccc23)C(=O)N(CCCn2ccnc2)C(=O)N1Cc1ccc(S(C)(=O)=O)cc1` (stereo not drawn) [Compound 28, 3-(3-imidazol-1-yl-propyl)-1-(4-methylsulfonyl-benzyl)-5-methyl-5-naphthalen-1-yl-imidazolidin-2,4-dione]: the IC50 is 1.1 µM on Ras farnesyl transferase, less than 20 µM in experiment [1] and more than 10 µM in experiment [2].
Taken in the same sequence, the figures for `CSc1ccc(CN2C(=O)N(CCCn3ccnc3)C(=O)C2(C)c2cccc3ccccc23)cc1C#N` (stereo not drawn) [Compound 29, 5-[3-(3-imidazol-1-yl-propyl)-5-methyl-5-naphthalen-1-yl-2,4-dioxo-imidazolidin-1-ylmethyl]-2-methylsulfanyl-benzonitrile] were 0.08 µM, less than 20 µM and more than 10 µM.
For `CC1(c2cccc3ccccc23)C(=O)N(CCCn2ccnc2)C(=O)N1Cc1ccc(S(C)(=O)=O)c(C#N)c1` (stereo not drawn) [Compound 30, 5-[3-(3-imidazol-1-yl-propyl)-5-methyl-5-naphthalen-1-yl-2,4-dioxo-imidazolidin-1-ylmethyl]-2-methylsulfonyl-benzonitrile] the same measures were 0.725 µM, less than 20 µM and more than 10 µM.
For `CC1(c2cccc3ccccc23)C(=O)N(CCCn2ccnc2)C(=O)N1Cc1ccccc1C#N` (stereo not drawn) [Compound 31, 2-[3-(3-imidazol-1-yl-propyl)-5-methyl-5-naphthalen-1-yl-2,4-dioxo-imidazolidin-1-ylmethyl]-benzonitrile] the same measures were 0.9 µM, less than 20 µM and more than 10 µM.
As for `CC1(c2cccc3ccccc23)C(=O)N(CCCn2ccnc2)C(=O)N1Cc1cccc(C#N)c1` (stereo not drawn) [Compound 32, 3-[3-(3-imidazol-1-yl-propyl)-5-methyl-5naphthalen-1-yl-2,4-dioxo-imidazolidin-1-ylmethyl]-benzonitrile], the IC50 at Ras farnesyl transferase is 0.092 µM; in experiment [1] it was less than 20 µM; in experiment [2], more than 10 µM.
Taken in the same sequence, the figures for `CC1(c2cccc3ccccc23)C(=O)N(CCCn2ccnc2)C(=O)N1Cc1ccc(C#N)cc1` (stereo not drawn) [Compound 33, 4-[3-(3-imidazol-1-yl-propyl)-5-methyl-5-naphthalen-1-yl-2,4-dioxo-imidazolidin-1-ylmethyl]-benzonitrile] were 1.3 µM, less than 20 µM and more than 10 µM.
Taken in the same sequence, the figures for `CC1(c2cccc3ccccc23)C(=O)N(CCCn2ccnc2)C(=O)N1Cc1ccc(CN)cc1` (stereo not drawn) [Compound 34, 1-(4-aminomethyl-benzyl)-3-(3-imidazol-1-yl-propyl)-5-methyl-5-naphthalen-1-yl-imidazolidin-2,4-dione] were 2.1 µM, less than 20 µM and more than 10 µM.
For `CC1(c2cccc3ccccc23)C(=O)N(CCCn2ccnc2)C(=O)N1Cc1ccccc1CNS(C)(=O)=O` (stereo not drawn) [Compound 35, N-{2-[3-(3-imidazol-1-yl-propyl)-5-methyl-5-naphthalen-1-yl-2,4-dioxo-imidazolidin-1-ylmethyl]-benzyl}-methanesulfonamide] the same measures were 0.5 µM, less than 20 µM and more than 10 µM.
As to `CC1(c2cccc3ccccc23)C(=O)N(CCCn2ccnc2)C(=O)N1Cc1cccc(CNS(C)(=O)=O)c1` (stereo not drawn) [Compound 36, N-{3-[3-(3-imidazol-1-yl-propyl)-5-methyl-5-naphthalen-1-yl-2,4-dioxo-imidazolidin-1-ylmethyl]-benzyl}-methanesulfonamide], the figures for the IC50 (at Ras farnesyl transferase; in experiment [1]; in experiment [2]) were 1.2 µM, less than 20 µM and more than 10 µM, respectively.
In the case of `CC1(c2cccc3ccccc23)C(=O)N(CCCn2ccnc2)C(=O)N1Cc1ccc(CNS(C)(=O)=O)cc1` (stereo not drawn) [Compound 37, N-{4-[3-(3-imidazol-1-yl-propyl)-5-methyl-5-naphthalen-1-yl-2,4-dioxo-imidazolidin-1-ylmethyl]-benzyl}-methanesulfonamide], the IC50 on Ras farnesyl transferase is 0.35 µM; in experiment [1], less than 20 µM; in experiment [2], more than 10 µM.
Taken in the same sequence, the figures for `COC(=O)c1ccc(CN2C(=O)N(CCCn3ccnc3)C(=O)C2(C)c2cccc3ccccc23)cc1` (stereo not drawn) [Compound 38, 4-[3-(3-imidazol-1-yl-propyl)-5-methyl-5-naphthalen-1-yl-2,4-dioxo-imidazolidin-1-ylmethyl]-benzoic acid methyl ester] were 0.25 µM, less than 20 µM and more than 10 µM.
For `CC1(c2cccc3ccccc23)C(=O)N(CCCn2ccnc2)C(=O)N1Cc1ccc(C(=O)O)cc1` (stereo not drawn) [Compound 39, 4-[3-(3-imidazol-1-yl-propyl)-5-methyl-5-naphthalen-1-yl-2,4-dioxo-imidazolidin-1-ylmethyl]-benzoic acid], the IC50 was 0.2 µM on Ras farnesyl transferase, less than 20 µM in experiment [1] and more than 10 µM in experiment [2].
Taken in the same sequence, the figures for `CC1(c2cccc3ccccc23)C(=O)N(CCCn2ccnc2)C(=O)N1Cc1ccc(C(=O)N2CCOCC2)cc1` (stereo not drawn) [Compound 40] were 1.4 µM, less than 20 µM and more than 10 µM.
For `COCCNC(=O)c1ccc(CN2C(=O)N(CCCn3ccnc3)C(=O)C2(C)c2cccc3ccccc23)cc1` (stereo not drawn) [Compound 41, 4-[3-(3-imidazol-1-yl-propyl)-5-methyl-5-naphthalen-1-yl-2,4-dioxo-imidazolidin-1-ylmethyl]-N-(2-methoxy-ethyl)-benzamide] the same measures were 0.53 µM, less than 20 µM and more than 10 µM.
Taken in the same sequence, the figures for `COCCN(C)C(=O)c1ccc(CN2C(=O)N(CCCn3ccnc3)C(=O)C2(C)c2cccc3ccccc23)cc1` (stereo not drawn) [Compound 42, 4[3-(3-imidazol-1-yl-propyl)-5-methyl-5-naphthalen-1-yl-2,4-dioxo-imidazolidin-1-ylmethyl]-N-(2-methoxy-ethyl)-N-methyl-benzamide] were 1 µM, less than 20 µM and more than 10 µM.
With `CC1(c2cccc3ccccc23)C(=O)N(CCCn2ccnc2)C(=O)N1Cc1ccc(C(=O)N2CCN(C(=O)OCc3ccccc3)CC2)cc1` (stereo not drawn) [Compound 43, 4-{4-[3-(3-imidazol-1-yl-propyl)-5-methyl-5-naphthalen-1-yl-2,4-dioxo-imidazolidin-1-ylmethyl]-benzoyl}-piperazine-1-carboxylic acid benzyl ester], the IC50 on Ras farnesyl transferase was 5 µM; in experiment [1], less than 20 µM; in experiment [2], more than 10 µM.
Taken in the same sequence, the figures for `CC1(c2cccc3ccccc23)C(=O)N(CCCn2ccnc2)C(=O)N1Cc1cccc(C(=O)N2CCSCC2)c1` (stereo not drawn) [Compound 44, 3-(3-imidazol-1-yl-propyl)-1-[3-(thiomorpholine-4-carbonyl)-benzyl]-5-methyl-5-naphthalen-1-yl-imidazolidin-2,4-dione] were 8 µM, less than 20 µM and more than 10 µM.
